Key:
[1] = tested on: DLD-1 cells; test: Real-time RT-PCR of Wnt target genes; assay type: cell-based; conditions: 10 (or 25) M as printed, 72 h, relative to GAPDH
Procedure: (§1) A real-time RT-PCR analysis was employed to confirm specific inhibition of expressed Wnt target genes. […] After 24 hours, solutions containing compound No. 1 were added at 10 or 25 μm final concentrations. Media containing the test compound were changed daily for 3 days. […] Real Time RT-PCR (SYBR Green PCR Mastermix, Stratagene) was performed using the following primers on a Mx3000P® QPCR System real-time thermal cycler (Stratagene): Results were calculated as the ratio of expression of target gene to a control gene (GAPDH).

[2] = tested on: SW480 cells; test: Real-time RT-PCR of Wnt target genes; assay type: cell-based; conditions: 10 (or 25) M as printed, 72 h, relative to GAPDH
Procedure: as §1

[3] = tested on: SW480 colon carcinoma cells; test: MTS cell proliferation assay, Table 5; assay type: cell-based; conditions: Homo sapiens; SW480, 10 μM, 72 h; relative to DMSO control; read-out: Cell proliferation (%) for test compounds
Summary of the method: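 SW480 cells treated with 10 μM compound (0.1% DMSO vehicle) in 10% FBS medium, refreshed daily, for 72 h. MTS reduction read at A490 after 2 h substrate incubation; values are t0-corrected growth as percent of DMSO control.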

[4] = target: T1, PTPN22(h) (Homo sapiens, UniProt Q9Y2R2); test: Phosphatase screen; assay type: biochemical; conditions: 0.1% DMSO control = 100%
T1 construct: purchased Millipore (KinaseProfiler service)
T1 sequence (Q9Y2R2 whole entry): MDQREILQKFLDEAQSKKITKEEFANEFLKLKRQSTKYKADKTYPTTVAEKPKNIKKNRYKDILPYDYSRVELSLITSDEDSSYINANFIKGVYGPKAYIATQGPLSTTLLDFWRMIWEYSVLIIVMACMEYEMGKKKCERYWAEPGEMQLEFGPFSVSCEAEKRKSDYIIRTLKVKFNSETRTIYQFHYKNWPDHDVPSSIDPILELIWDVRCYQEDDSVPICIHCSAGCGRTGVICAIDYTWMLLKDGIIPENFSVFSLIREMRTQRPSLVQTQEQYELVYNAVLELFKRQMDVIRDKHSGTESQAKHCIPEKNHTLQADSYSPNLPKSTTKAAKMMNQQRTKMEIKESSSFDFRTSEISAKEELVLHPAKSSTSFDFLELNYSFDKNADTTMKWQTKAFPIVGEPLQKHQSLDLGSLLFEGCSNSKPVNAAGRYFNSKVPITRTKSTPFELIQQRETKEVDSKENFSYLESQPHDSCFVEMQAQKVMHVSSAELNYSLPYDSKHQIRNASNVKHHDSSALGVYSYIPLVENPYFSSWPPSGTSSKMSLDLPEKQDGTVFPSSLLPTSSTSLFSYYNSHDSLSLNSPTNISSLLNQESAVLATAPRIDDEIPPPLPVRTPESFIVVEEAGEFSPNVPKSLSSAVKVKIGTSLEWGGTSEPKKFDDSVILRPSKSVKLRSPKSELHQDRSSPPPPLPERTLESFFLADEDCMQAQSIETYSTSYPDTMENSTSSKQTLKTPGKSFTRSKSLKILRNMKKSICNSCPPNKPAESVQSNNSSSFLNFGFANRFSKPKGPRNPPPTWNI

[5] = target: T2, CDK9/cyclin T1(h) (Homo sapiens, UniProt P50750); test: Kinase screen; assay type: biochemical; conditions: 0.1% DMSO control = 100%
T2 construct: purchased Millipore (KinaseProfiler service)
T2 sequence (P50750 whole entry): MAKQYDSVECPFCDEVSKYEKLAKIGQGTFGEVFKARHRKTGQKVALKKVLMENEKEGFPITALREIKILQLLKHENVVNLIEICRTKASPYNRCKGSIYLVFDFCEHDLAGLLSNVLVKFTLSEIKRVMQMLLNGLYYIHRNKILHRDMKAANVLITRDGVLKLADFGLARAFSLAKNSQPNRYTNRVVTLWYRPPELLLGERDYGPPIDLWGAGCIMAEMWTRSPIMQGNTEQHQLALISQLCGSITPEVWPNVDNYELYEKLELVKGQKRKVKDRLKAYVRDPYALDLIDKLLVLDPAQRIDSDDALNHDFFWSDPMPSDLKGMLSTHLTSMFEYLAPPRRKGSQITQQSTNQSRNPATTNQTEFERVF
T2 sequence (O60563 whole entry partner): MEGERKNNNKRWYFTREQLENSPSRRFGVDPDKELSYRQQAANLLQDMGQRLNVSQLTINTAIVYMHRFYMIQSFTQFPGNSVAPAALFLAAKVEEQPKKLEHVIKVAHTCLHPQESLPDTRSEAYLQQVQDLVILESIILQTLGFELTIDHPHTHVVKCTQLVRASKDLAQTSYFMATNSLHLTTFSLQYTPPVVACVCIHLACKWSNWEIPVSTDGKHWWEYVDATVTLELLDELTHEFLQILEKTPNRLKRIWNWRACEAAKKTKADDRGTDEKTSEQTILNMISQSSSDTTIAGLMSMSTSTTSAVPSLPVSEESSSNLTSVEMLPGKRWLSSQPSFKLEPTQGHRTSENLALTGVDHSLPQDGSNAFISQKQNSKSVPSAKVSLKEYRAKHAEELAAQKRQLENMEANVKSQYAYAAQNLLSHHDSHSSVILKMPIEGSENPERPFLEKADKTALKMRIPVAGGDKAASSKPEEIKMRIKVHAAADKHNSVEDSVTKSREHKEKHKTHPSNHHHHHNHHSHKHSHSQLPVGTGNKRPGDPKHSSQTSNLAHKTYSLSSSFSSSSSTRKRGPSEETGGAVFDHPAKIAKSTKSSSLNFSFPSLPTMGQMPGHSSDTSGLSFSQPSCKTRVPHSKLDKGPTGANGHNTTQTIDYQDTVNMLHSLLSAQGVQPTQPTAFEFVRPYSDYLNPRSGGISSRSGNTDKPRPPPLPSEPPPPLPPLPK

[6] = target: T3, EphA5(h) (Homo sapiens, UniProt P54756); test: Kinase screen; assay type: biochemical; conditions: 0.1% DMSO control = 100%
T3 construct: purchased Millipore (KinaseProfiler service)
T3 sequence (P54756 25-1037): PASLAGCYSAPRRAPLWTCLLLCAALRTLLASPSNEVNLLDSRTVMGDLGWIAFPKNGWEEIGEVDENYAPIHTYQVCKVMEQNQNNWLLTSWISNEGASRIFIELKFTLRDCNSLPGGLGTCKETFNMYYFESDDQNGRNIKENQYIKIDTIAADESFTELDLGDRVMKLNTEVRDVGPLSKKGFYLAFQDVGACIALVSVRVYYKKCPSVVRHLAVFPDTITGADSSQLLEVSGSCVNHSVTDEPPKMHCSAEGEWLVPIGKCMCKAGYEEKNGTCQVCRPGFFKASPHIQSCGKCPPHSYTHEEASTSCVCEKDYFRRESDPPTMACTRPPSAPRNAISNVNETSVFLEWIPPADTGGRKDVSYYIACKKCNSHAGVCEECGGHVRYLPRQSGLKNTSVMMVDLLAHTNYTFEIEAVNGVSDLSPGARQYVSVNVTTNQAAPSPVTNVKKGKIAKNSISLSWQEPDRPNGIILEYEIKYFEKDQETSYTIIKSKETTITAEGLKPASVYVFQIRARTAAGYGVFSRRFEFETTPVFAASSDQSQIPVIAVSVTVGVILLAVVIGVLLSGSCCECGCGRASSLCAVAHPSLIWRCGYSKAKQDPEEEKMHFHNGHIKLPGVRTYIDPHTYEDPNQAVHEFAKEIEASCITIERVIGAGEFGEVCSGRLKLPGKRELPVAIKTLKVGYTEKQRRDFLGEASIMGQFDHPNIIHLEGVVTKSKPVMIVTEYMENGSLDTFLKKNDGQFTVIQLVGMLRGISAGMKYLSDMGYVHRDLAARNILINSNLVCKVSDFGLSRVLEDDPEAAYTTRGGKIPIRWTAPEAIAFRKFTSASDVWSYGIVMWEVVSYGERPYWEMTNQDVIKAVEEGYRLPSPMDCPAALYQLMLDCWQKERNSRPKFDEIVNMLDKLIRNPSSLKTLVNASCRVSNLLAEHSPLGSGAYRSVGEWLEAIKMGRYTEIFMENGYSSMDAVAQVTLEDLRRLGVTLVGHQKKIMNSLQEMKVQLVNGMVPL

[7] = target: T4, KDR(h) (Homo sapiens, UniProt P35968); test: Kinase screen; assay type: biochemical; conditions: 0.1% DMSO control = 100%
T4 construct: purchased Millipore (KinaseProfiler service)
T4 sequence (P35968 20-1356): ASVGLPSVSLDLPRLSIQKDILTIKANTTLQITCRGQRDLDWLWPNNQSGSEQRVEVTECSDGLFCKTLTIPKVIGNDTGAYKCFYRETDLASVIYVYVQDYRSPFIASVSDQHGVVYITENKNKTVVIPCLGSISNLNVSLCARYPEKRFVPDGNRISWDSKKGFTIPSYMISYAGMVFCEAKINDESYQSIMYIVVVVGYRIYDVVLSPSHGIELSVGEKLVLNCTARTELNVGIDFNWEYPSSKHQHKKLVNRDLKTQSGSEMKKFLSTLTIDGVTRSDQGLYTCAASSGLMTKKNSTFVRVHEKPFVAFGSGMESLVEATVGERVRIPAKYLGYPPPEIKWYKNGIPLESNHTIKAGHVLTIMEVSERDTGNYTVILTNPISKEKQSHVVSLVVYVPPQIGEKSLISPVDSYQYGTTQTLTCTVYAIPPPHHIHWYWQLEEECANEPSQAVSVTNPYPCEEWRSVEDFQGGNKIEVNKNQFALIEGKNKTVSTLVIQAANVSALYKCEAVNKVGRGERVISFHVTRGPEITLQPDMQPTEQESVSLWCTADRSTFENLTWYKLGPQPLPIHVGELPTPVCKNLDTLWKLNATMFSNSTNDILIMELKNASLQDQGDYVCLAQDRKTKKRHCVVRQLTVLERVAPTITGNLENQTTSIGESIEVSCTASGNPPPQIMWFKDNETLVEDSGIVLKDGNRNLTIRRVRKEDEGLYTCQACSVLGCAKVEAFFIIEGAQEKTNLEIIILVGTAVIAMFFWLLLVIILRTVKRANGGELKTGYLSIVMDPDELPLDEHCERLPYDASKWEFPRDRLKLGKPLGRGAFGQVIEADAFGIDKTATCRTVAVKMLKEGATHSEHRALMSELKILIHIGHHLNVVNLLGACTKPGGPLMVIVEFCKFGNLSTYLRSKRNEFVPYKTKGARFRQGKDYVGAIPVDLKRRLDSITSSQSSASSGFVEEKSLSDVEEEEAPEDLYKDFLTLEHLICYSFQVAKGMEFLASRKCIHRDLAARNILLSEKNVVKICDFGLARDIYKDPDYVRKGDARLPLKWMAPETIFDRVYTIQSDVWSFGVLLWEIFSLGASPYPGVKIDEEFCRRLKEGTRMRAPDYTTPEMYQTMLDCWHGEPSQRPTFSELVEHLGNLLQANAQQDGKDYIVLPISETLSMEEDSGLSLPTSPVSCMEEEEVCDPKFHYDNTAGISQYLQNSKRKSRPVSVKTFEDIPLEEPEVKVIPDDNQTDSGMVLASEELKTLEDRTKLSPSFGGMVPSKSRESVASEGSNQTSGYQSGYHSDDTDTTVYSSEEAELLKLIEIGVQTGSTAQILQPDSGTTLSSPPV

[8] = target: T5, MLK1(h) (Homo sapiens, UniProt P80192); test: Kinase screen; assay type: biochemical; conditions: 0.1% DMSO control = 100%
T5 construct: purchased Millipore (KinaseProfiler service)

[9] = target: T6, PRAK(h) (Homo sapiens, UniProt Q8IW41); test: Kinase screen; assay type: biochemical; conditions: 0.1% DMSO control = 100%
T6 construct: purchased Millipore (KinaseProfiler service)
T6 sequence (Q8IW41 whole entry): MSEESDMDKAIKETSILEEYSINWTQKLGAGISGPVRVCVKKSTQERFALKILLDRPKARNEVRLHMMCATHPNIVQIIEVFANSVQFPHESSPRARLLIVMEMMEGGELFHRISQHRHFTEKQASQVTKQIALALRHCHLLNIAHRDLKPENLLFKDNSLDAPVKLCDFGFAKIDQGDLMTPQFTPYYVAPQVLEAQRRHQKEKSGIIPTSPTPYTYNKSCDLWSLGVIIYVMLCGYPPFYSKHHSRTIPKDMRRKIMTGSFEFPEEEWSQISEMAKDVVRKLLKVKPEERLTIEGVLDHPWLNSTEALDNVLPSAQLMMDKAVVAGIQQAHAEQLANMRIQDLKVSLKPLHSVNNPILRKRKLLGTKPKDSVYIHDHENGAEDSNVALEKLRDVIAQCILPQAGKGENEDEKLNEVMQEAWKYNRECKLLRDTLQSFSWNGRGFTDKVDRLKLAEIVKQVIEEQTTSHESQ

With COc1ccc(-n2c(SCc3nc(-c4ccc(C)cc4)no3)nnc2-c2ccncc2)cc1 [Compound 1] the “Axin2, SP5 and NKD1 mRNA levels” value [1] was “dose dependent reduction”, the “Axin2, SP5 and NKD1 mRNA levels” value [2] was “dose dependent reduction” and the activity at 10 µM [3] was 52%. It also gave an activity at 10 µM [4] of 99%, an activity at 10 µM [5] of 115% and an activity at 10 µM [6] of 99%. It also gave an activity at 10 µM [7] of 104%, an activity at 10 µM [8] of 99% and an activity at 10 µM [9] of 55%.

Reference: patent US8883827B2, “Azole derivatives as WTN pathway inhibitors” (Oslo University Hospital HF, priority 2009, dated 2014)
